According to BindingDB's records for doi:10.1016/j.bmc.2019.01.024 (2019):

Key:
[1] = Inhibition of mouse GAT2 expressed in HEK293 cells assessed as reduction in [3H]GABA uptake preincubated for 25 mins followed by [3H]GABA addition and measured after 10 mins by microbeta liquid scintillation counting method
[2] = Inhibition of mouse GAT3 expressed in HEK293 cells assessed as reduction in [3H]GABA uptake preincubated for 25 mins followed by [3H]GABA addition and measured after 4 mins by microbeta liquid scintillation counting method
[3] = biological target: T1, Sodium- and chloride-dependent GABA transporter 2 (Mus musculus, UniProt P31649); test: Inhibition of mouse GAT2 expressed in HEK293 cells assessed as reduction in [3H]GABA uptake preincubated for 25 mins followed by [3H]GABA addition and measured after 10 mins by microbeta liquid scintillation counting method
T1 sequence (P31649 whole entry): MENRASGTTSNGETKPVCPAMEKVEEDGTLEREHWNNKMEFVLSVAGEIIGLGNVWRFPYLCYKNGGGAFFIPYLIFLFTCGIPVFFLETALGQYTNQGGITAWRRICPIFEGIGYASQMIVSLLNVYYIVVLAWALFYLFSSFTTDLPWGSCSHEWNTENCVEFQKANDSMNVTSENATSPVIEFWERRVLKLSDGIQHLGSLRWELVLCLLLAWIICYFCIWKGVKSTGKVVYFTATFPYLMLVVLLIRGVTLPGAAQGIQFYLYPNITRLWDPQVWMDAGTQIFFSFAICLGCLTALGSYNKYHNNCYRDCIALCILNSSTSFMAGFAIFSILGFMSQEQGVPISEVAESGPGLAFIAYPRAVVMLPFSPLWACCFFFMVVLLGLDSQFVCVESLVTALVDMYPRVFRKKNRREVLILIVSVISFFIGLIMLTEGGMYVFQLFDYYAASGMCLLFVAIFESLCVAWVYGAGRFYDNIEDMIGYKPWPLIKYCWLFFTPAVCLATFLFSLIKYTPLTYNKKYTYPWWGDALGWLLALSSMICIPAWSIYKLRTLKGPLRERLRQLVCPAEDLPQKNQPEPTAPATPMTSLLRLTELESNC

| Compound | IC50 [1] | IC50 [2] | IC50 [3] |
| --- | --- | --- | --- |
| COc1ccc(C(/C=C\CN2CCCC(C(=O)O)C2)(c2ccc(OC)cc2)c2ccc3c(c2)OCO3)cc1 (stereo unspecified) | 61.7 µM | 45.7 µM |  |
| COc1ccc(C(/C=C\CN2CCCC(C(=O)O)C2)(Cc2ccccc2)c2ccc(OC)cc2)cc1 (stereo unspecified) |  |  | 30.2 µM |
| COc1ccc(C(C/C=C\CN2CCCC(C(=O)O)C2)(c2ccc(OC)cc2)c2ccc(OC)cc2)cc1 (stereo unspecified) |  | 85.1 µM |  |
| O=C(O)C1CCCN(CC/C=C\C(c2ccccc2)(c2ccccc2)c2ccccc2)C1 (stereo unspecified) | 55 µM |  |  |
| COc1ccc(C(/C=C\CN2CCCC(C(=O)O)C2)(c2ccc(OC)cc2)c2ccsc2)cc1 (stereo unspecified) | 89.1 µM |  |  |
